What all share (assay type): functional
The subject of experiment [1] is Meloidogyne incognita. Kind of experiment: Average percent inhibition of nematode pest Meloidogyne incognita induced root galling of treated soil medium at 125 ppm.
In experiment [2] the test system is Meloidogyne incognita. Kind of experiment: Average percent inhibition of nematode pest Meloidogyne incognita induced root galling of treated sand medium at 125 ppm.
Experiment [3] relates to Meloidogyne incognita. Put plainly: Average percent inhibition of nematode pest Meloidogyne incognita induced root galling of treated soil medium at 7.8 ppm.
The subject of experiment [4] is Meloidogyne incognita. Put plainly: Average percent inhibition of nematode pest Meloidogyne incognita induced root galling of treated sand medium at 0.5 ppm.
Experiment [5] has as its system Meloidogyne incognita. Put plainly: Average percent inhibition of nematode pest Meloidogyne incognita induced root galling of treated sand medium at 7.8 ppm.
The subject of experiment [6] is Meloidogyne incognita. Kind of experiment: Average percent inhibition of nematode pest Meloidogyne incognita induced root galling of treated soil medium at 0.5 ppm.
Experiment [7] concerns Meloidogyne incognita. Kind of experiment: Lethal concentration required for inhibition of nematode induced root galling of treated sand medium to that of untreated soil medium.

In brackets after ≈: the same amount, converted by molar mass.

For the compound `C=C1CC1CCSC1=NCCS1` (stereo not drawn), the inhibition at 125 ppm in the experiment on Meloidogyne incognita [1] and in the experiment with Meloidogyne incognita [2] was 100% each time. Besides, the results for the inhibition at 7.8 ppm in the experiment with Meloidogyne incognita [3] and in the experiment with Meloidogyne incognita [5] were 25% and 100%, respectively. Moreover, the values for the inhibition at 0.5 ppm with Meloidogyne incognita [4] and with Meloidogyne incognita [6] were 50% and 0%, respectively.

Turning to `C=C1CC1CC(=O)O` (stereo not drawn), the inhibition (as a rule, the change of the read-out against control, counted positive when it falls) at 125 ppm in the experiment on Meloidogyne incognita [1] is 80%; in the experiment on Meloidogyne incognita [2], 100%. The inhibition at 7.8 ppm is 15% in the experiment with Meloidogyne incognita [3] and 100% in the experiment with Meloidogyne incognita [5]. Moreover, the inhibition at 0.5 ppm amounted to 90% in the experiment on Meloidogyne incognita [4] and 0% with Meloidogyne incognita [6].

`CC1CC1CC(=O)O` (stereo not drawn): the inhibition at 125 ppm is 0% in the experiment on Meloidogyne incognita [1] and 100% in the experiment with Meloidogyne incognita [2]. Also, the inhibition at 7.8 ppm came out at 0% with Meloidogyne incognita [3] and 100% in the experiment on Meloidogyne incognita [5]. For the same compound, the inhibition at 0.5 ppm in the experiment on Meloidogyne incognita [4] and with Meloidogyne incognita [6] was 0% throughout.

Regarding `C=C1CC1CC(=O)OCc1cccc(Oc2ccccc2)c1` (stereo not drawn), the inhibition at 125 ppm worked out at 50% in the experiment on Meloidogyne incognita [1] and 100% in the experiment with Meloidogyne incognita [2]. Also, the results for the inhibition at 7.8 ppm in the experiment on Meloidogyne incognita [3] and with Meloidogyne incognita [5] were 0% and 100%, respectively. Further, the inhibition at 0.5 ppm worked out at 50% in the experiment with Meloidogyne incognita [4] and 0% in the experiment on Meloidogyne incognita [6].

In the case of `C=C1CC1CCN` (stereo not drawn), the inhibition at 125 ppm turned out to be 75% in the experiment with Meloidogyne incognita [1] and 100% in the experiment on Meloidogyne incognita [2]. In addition, the values for the inhibition at 7.8 ppm in the experiment on Meloidogyne incognita [3] and with Meloidogyne incognita [5] were 0% and 100%, respectively. Besides, the inhibition at 0.5 ppm in the experiment with Meloidogyne incognita [4] is 25%; in the experiment on Meloidogyne incognita [6], 0%.

In the case of `C=C1C(CC(=O)OCc2cccc(Oc3ccccc3)c2)C1(F)F` (stereo not drawn), the inhibition at 125 ppm with Meloidogyne incognita [1] was determined as 25%. The same compound yielded an inhibition at 7.8 ppm in the experiment on Meloidogyne incognita [3] of 0%. For the same compound, testing at 0.5 ppm in the experiment with Meloidogyne incognita [6] gave an inhibition of 0%.

With `C=C1CC1CCOC(=O)c1ccc(OCC)cc1` (stereo not drawn), the inhibition at 125 ppm with Meloidogyne incognita [1] and in the experiment on Meloidogyne incognita [2] was 100% each time. The inhibition at 7.8 ppm is 0% in the experiment with Meloidogyne incognita [3] and 100% in the experiment on Meloidogyne incognita [5]. Further, the inhibition at 0.5 ppm in the experiment with Meloidogyne incognita [4] is 100%; in the experiment on Meloidogyne incognita [6], 0%.

`C=C1C(CC(=O)OCCCCCCCCCCCCCCCC)C1(F)F` (stereo not drawn) gave an inhibition at 125 ppm in the experiment with Meloidogyne incognita [1] of 0%. Moreover, 7.8 ppm produced 0% inhibition with Meloidogyne incognita [3]. The compound also displayed an inhibition at 0.5 ppm in the experiment on Meloidogyne incognita [6] of 0%.

For `C=C1CC1CC(N)=O` (stereo not drawn), the inhibition at 125 ppm with Meloidogyne incognita [1] and in the experiment with Meloidogyne incognita [2] was 100% throughout. The inhibition at 7.8 ppm in the experiment on Meloidogyne incognita [3] worked out at 0%; with Meloidogyne incognita [5], 100%. For the same compound, the inhibition at 0.5 ppm with Meloidogyne incognita [4] and in the experiment on Meloidogyne incognita [6] was 0% in each case.

Consider `C=C1CC1CC(=O)OCCCCCCCCCCCCCCCC` (stereo not drawn), for which the inhibition at 125 ppm in the experiment on Meloidogyne incognita [1] and in the experiment on Meloidogyne incognita [2] was 100% in each case. The inhibition at 7.8 ppm in the experiment with Meloidogyne incognita [3] came out at 50%; in the experiment on Meloidogyne incognita [5], 100%. Besides, the values for the inhibition at 0.5 ppm in the experiment on Meloidogyne incognita [4] and with Meloidogyne incognita [6] were 100% and 0%, respectively.

Take `C=C1C(CC(=O)O)C1(F)F` (stereo not drawn): the inhibition at 125 ppm in the experiment on Meloidogyne incognita [1] was found to be 100%. In the experiment on Meloidogyne incognita [3], the inhibition at 7.8 ppm is 0%. The compound further displayed an inhibition at 0.5 ppm in the experiment with Meloidogyne incognita [6] of 0%.

On to `CNC(=O)O/N=C/C(C)(C)SC` [ALDICARB], for which the median lethal concentration (LC50) (commonly the concentration lethal to half of the exposed cells or organisms) with Meloidogyne incognita [7] was 3.8 mg/L (≈ 20 µM).

Source of the values: ChEMBL document CHEMBL1130581, “Inhibition of nematode induced root damage by derivatives of methylenecyclopropane acetic acid” (1997).
